# Experimental data taken from US11000033B2, “Ketone or oxime compound, and herbicide” (NISSAN CHEMICAL CORPORATION, priority 2014, dated 2021).
# Experiments:
# Format in all cases: in vivo
# [1] = tested on: Echinochloa oryzacola Vasing.; test: Test Example 1: herbicidal activity, application before weed generation in submerged conditions (symbol A); conditions: application herbicide amount 320 g/ha
# In short: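 Weeds are sown into submerged alluvial soil alongside transplanted 2.5-leaf rice, and the compound, as an emulsion diluted to a set rate, is applied onto the water before emergence. Rating on the 0–5 herbicidal-ratio scale follows 3 weeks of greenhouse growth at 25–30 °C.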
# [2] = tested on: Echinochloa oryzacola Vasing.; test: Test Example 2: herbicidal activity, application during weed generation in submerged conditions (symbol A); conditions: Table 23; application herbicide amount 320 g/ha; grade 0-5 by criteria of Test Example 1
# In short: (§1)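 Paddy pot test, submerged (4 cm water), alluvial soil, mixed sowing; greenhouse 25–30° C. Emulsion formulation diluted to predetermined rate, applied onto floodwater at 1–2 leaf stage. Visual herbicidal rating at 3 wk post-treatment.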
# Monochoria vaginalis = test: Test Example 2: herbicidal activity, application during weed generation in submerged conditions (symbol C); conditions: Table 23; application herbicide amount 320 g/ha; grade 0-5 by criteria of Test Example 1
# In short: as §1
# Cyperus difformis = test: Test Example 3: herbicidal effect by foliage application, Wagner pot (symbol E); conditions: application herbicide amount 320 g/ha
# In short: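 Foliar spray of water-diluted emulsion formulation at a predetermined herbicide amount onto 14-day-old plants in flooded alluvial soil (water depth 0.1–0.5 cm), greenhouse 25–30 °C; rice sown alongside. Scored 3 wk post-application on set criteria.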
# [3] = tested on: directly sowed rice plant; test: Test Example 3: effect on crop by foliage application, Wagner pot (symbol b); conditions: application herbicide amount 320 g/ha
# In short: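 Wagner pot (1/10000 are), alluvial soil, submerged 0.1–0.5 cm; sown E. crus-galli var. crus-galli, L. chinensis, C. difformis, rice; greenhouse 25–30 °C.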
# [4] = tested on: Echinochloa crus-galli var. crus-galli; test: Test Example 4: herbicidal effect by soil treatment (symbol H); conditions: application herbicide amount 320 g/ha
# In short: (§2)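 Seeds were sown in sterilized diluvial soil, covered with about 1.5 cm of soil, and the soil surface was sprayed with a water-diluted emulsion of the compound at a predetermined rate. Plants grew in a greenhouse at 25° C. to 30° C.; effects were scored visually 3 weeks after application.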
# Abutilon theophrasti = test: Test Example 4: herbicidal effect by soil treatment (symbol M); conditions: application herbicide amount 320 g/ha
# In short: as §2
# Stellaria media [5] = test: Test Example 4: herbicidal effect by soil treatment (symbol P); conditions: application herbicide amount 320 g/ha
# In short: as §2
# Digitaria ciliaris = test: Test Example 5: herbicidal effect by foliage application, plastic box (symbol F); conditions: 320 g/ha, 3 weeks after application
# In short: (§3)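 Visual herbicidal score, taken three weeks post-application, of seedlings sprayed on the foliage with water-diluted emulsion at a predetermined amount; plants were 14 days old, greenhouse-raised at 25° C. to 30° C.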
# Avena fatua = test: Test Example 5: herbicidal effect by foliage application, plastic box (symbol I); conditions: 320 g/ha, 3 weeks after application
# In short: as §3
# Apera spica-venti = test: Test Example 5: herbicidal effect by foliage application, plastic box (symbol L); conditions: 320 g/ha, 3 weeks after application
# In short: as §3
# Stellaria media [6] = test: Test Example 5: herbicidal effect by foliage application, plastic box (symbol P); conditions: 320 g/ha, 3 weeks after application
# In short: as §3
# rice plant = test: Test Example 5: effect on crop by foliage application, plastic box (symbol b); conditions: 320 g/ha, 3 weeks after application
# In short: (§4)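 Sterilized diluvial soil, plastic box (21 × 13 × 7 cm); spot sowing, ~1.5 cm soil cover; greenhouse 25–30° C.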
# rapeseed = test: Test Example 5: effect on crop by foliage application, plastic box (symbol g); conditions: 320 g/ha, 3 weeks after application
# In short: as §4
Compound,"Herbicidal effect grade, A: Echinochloa oryzacola Vasing. [1]","Herbicidal effect grade, A: Echinochloa oryzacola Vasing. [2]","Herbicidal effect grade, C: Monochoria vaginalis (Monochoria vaginalis)","herbicidal effect on E, grade 0-5 (Cyperus difformis)","effect on crop b (directly sowed rice plant), grade 0-5 [3]","H: Echinochloa crus-galli var. crus-galli, herbicidal effect grade [4]","M: Abutilon theophrasti, herbicidal effect grade (Abutilon theophrasti)","P: Stellaria media, herbicidal effect grade (Stellaria media [5])","F: Digitaria ciliaris, herbicidal effect grade (Digitaria ciliaris)","I: Avena fatua, herbicidal effect grade (Avena fatua)","L: Apera spica-venti, herbicidal effect grade (Apera spica-venti)","P: Stellaria media, herbicidal effect grade (Stellaria media [6])","b: directly sowed rice plant, effect on crop grade (rice plant)","g: rapeseed, effect on crop grade (rapeseed)"
CCOC(=O)C(C(=O)c1ccccc1)C1CC(O)=C(c2c(C)cc(C)cc2C)C1=O (stereo not shown) [2-008],0 (Herbicidal ratio of 5% or lower (almost no effect)),0 (Herbicidal ratio of 5% or lower (almost no effect)),0 (Herbicidal ratio of 5% or lower (almost no effect)),0 (Herbicidal ratio of 5% or lower (almost no effect)),0 (Herbicidal ratio of 5% or lower (almost no effect)),0 (Herbicidal ratio of 5% or lower (almost no effect)),0 (Herbicidal ratio of 5% or lower (almost no effect)),0 (Herbicidal ratio of 5% or lower (almost no effect)),2 (Herbicidal ratio of 20% or higher and lower than 40%),0 (Herbicidal ratio of 5% or lower (almost no effect)),0 (Herbicidal ratio of 5% or lower (almost no effect)),0 (Herbicidal ratio of 5% or lower (almost no effect)),4 (Herbicidal ratio of 70% or higher and lower than 90%),3 (Herbicidal ratio of 40% or higher and lower than 70%)
CCOC(=O)C(C(=O)C(F)(F)F)C1CC(O)=C(c2c(C)cc(C)cc2C)C1=O (stereo not shown) [2-010],0 (Herbicidal ratio of 5% or lower (almost no effect)),0 (Herbicidal ratio of 5% or lower (almost no effect)),0 (Herbicidal ratio of 5% or lower (almost no effect)),0 (Herbicidal ratio of 5% or lower (almost no effect)),1 (Herbicidal ratio of 5% or higher and lower than 20%),0 (Herbicidal ratio of 5% or lower (almost no effect)),0 (Herbicidal ratio of 5% or lower (almost no effect)),0 (Herbicidal ratio of 5% or lower (almost no effect)),0 (Herbicidal ratio of 5% or lower (almost no effect)),0 (Herbicidal ratio of 5% or lower (almost no effect)),0 (Herbicidal ratio of 5% or lower (almost no effect)),0 (Herbicidal ratio of 5% or lower (almost no effect)),0 (Herbicidal ratio of 5% or lower (almost no effect)),0 (Herbicidal ratio of 5% or lower (almost no effect))
CON=C(C)CC1CC(O)=C(c2c(C)cc(C)cc2Br)C1=O (stereo not shown) [6-038],5 (Herbicidal ratio of 90% or more (almost completely withered)),4 (Herbicidal ratio of 70% or higher and lower than 90%),1 (Herbicidal ratio of 5% or higher and lower than 20%),5 (Herbicidal ratio of 90% or more (almost completely withered)),5 (Herbicidal ratio of 90% or more (almost completely withered)),5 (Herbicidal ratio of 90% or more (almost completely withered)),5 (Herbicidal ratio of 90% or more (almost completely withered)),0 (Herbicidal ratio of 5% or lower (almost no effect)),5 (Herbicidal ratio of 90% or more (almost completely withered)),5 (Herbicidal ratio of 90% or more (almost completely withered)),5 (Herbicidal ratio of 90% or more (almost completely withered)),4 (Herbicidal ratio of 70% or higher and lower than 90%),5 (Herbicidal ratio of 90% or more (almost completely withered)),5 (Herbicidal ratio of 90% or more (almost completely withered))
CON=CC1CC(O)=C(c2c(C)cc(C)cc2C)C1=O (mixture of isomers) [3-001],0 (Herbicidal ratio of 5% or lower (almost no effect)),0 (Herbicidal ratio of 5% or lower (almost no effect)),0 (Herbicidal ratio of 5% or lower (almost no effect)),0 (Herbicidal ratio of 5% or lower (almost no effect)),2 (Herbicidal ratio of 20% or higher and lower than 40%),0 (Herbicidal ratio of 5% or lower (almost no effect)),0 (Herbicidal ratio of 5% or lower (almost no effect)),0 (Herbicidal ratio of 5% or lower (almost no effect)),4 (Herbicidal ratio of 70% or higher and lower than 90%),2 (Herbicidal ratio of 20% or higher and lower than 40%),3 (Herbicidal ratio of 40% or higher and lower than 70%),0 (Herbicidal ratio of 5% or lower (almost no effect)),4 (Herbicidal ratio of 70% or higher and lower than 90%),0 (Herbicidal ratio of 5% or lower (almost no effect))
C=Cc1cc(C)c(C2=C(O)CC(CC(C)=NOC)C2=O)c(C)c1 (mixture of isomers) [6-031],3 (Herbicidal ratio of 40% or higher and lower than 70%),4 (Herbicidal ratio of 70% or higher and lower than 90%),0 (Herbicidal ratio of 5% or lower (almost no effect)),2 (Herbicidal ratio of 20% or higher and lower than 40%),4 (Herbicidal ratio of 70% or higher and lower than 90%),0 (Herbicidal ratio of 5% or lower (almost no effect)),0 (Herbicidal ratio of 5% or lower (almost no effect)),0 (Herbicidal ratio of 5% or lower (almost no effect)),5 (Herbicidal ratio of 90% or more (almost completely withered)),5 (Herbicidal ratio of 90% or more (almost completely withered)),4 (Herbicidal ratio of 70% or higher and lower than 90%),0 (Herbicidal ratio of 5% or lower (almost no effect)),5 (Herbicidal ratio of 90% or more (almost completely withered)),3 (Herbicidal ratio of 40% or higher and lower than 70%)
